Laboratory results as given in patent US20020183335A1, “2, 4-disubstituted pyrimidine-5-carboxamide derivatives as KCNQ potassium channel modulators” (priority 2001, published 2002).
Marks after values point to notes of the source that are not given here.

Columns and labels:
[1] = molecular target: cloned mouse KCNQ2 (mKCNQ2) (Mus musculus, UniProt Q9Z351); assay: KCNQ oocyte two-electrode voltage clamp, KCNQ2-mediated outward current; format: cell-based; settings: expressed as percent increase over KCNQ current in controls, Xenopus oocytes
Chain of cloned mouse KCNQ2 (mKCNQ2) (Q9Z351 whole entry): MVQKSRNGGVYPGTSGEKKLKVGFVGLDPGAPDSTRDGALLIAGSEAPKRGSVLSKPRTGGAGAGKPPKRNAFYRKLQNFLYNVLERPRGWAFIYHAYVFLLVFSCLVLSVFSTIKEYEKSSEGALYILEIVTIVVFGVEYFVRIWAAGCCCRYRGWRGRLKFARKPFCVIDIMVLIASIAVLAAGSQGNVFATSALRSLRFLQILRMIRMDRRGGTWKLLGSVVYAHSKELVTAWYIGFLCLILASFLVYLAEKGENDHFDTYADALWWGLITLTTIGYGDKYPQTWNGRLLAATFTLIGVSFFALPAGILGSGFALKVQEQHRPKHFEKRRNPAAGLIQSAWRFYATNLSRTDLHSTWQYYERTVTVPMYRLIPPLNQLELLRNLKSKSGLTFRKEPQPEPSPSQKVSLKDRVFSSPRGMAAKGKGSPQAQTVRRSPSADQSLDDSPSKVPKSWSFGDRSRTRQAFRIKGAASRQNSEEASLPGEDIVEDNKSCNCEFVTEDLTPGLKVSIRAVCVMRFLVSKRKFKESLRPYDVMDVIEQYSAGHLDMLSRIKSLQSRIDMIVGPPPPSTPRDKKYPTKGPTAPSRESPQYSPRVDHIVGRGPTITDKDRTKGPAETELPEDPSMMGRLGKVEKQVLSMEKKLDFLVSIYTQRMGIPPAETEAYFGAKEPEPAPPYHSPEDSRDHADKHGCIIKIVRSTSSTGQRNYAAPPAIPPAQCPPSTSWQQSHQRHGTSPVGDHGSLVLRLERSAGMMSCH
Description: The ability of compounds described in the present invention to open KCNQ channels and increase whole-cell outward (K^+) KCNQ-mediated currents was assessed under voltage-clamp conditions by determining their ability to increase cloned mouse KCNQ2 (mKCNQ2)-mediated, heteromultimeric KCNQ2/3 (KCNQ2/3)-mediated, and human KCNQ5 (hKCNQ5)-mediated outward currents heterologously expressed in Xenopus oocytes. Oocytes were prepared and injected using standard techniques; each oocyte was injected with approximately 50 nl of mKCNQ2, or hKCNQ5 cRNA. In the case of mKCNQ2/3 heteromultimeric channel expression, equal amounts (25-50 nL) of each cRNA were co-injected. […] Following injection, oocytes were maintained at 17° C. in ND96 medium consisting of (in mM): NaCl, 90; KCl, 1.0; CaCl2, 1.0; MgCl2, 1.0; HEPES, 5.0; pH 7.5. Horse serum (5%) and penicillin/streptomycin (5%) were added to the incubation medium. Recording commenced 2-6 days following mRNA injection. Prior to the start of an experiment oocytes were placed in a recording chamber and incubated in Modified Barth's Solution (MBS) consisting of (in mM): NaCl, 88; NaHCO3, 2.4; KCl, 1.0; HEPES, 10; MgSO4, 0.82; Ca(NO3)2, 0.33; CaCl2, 0.41; pH 7.5.
Oocytes were impaled with electrodes (1-2 MΩ) and standard 2-electrode voltage clamp techniques were employed to record whole-cell membrane currents. Recordings were accomplished using standard two-electrode voltage clamp techniques [Stuhmer et al., Methods in Enzymology, Vol. 207: 319-339 (1992)]. Voltage-clamp protocols typically consisted of a series of voltage steps 1-5 sec duration, in +10 mV steps from a holding potential of −90 mV to a maximal potential of +40 mV; records were digitized at 5 kHz and stored on a computer using pclamp data acquisition and analysis software (Axon Instruments). […]

[2] = system: SSS-stimulated trigeminal field response; assay: In vivo electrophysiology: superior sagittal sinus (SSS)-stimulated trigeminal field response model of migraine; design: species or system rat
Source text: Male Long-Evans rats (Harlan, 250-400 g) were used in the experiments described in this example. Prior to testing, rats were allowed access to food and water ad libitum and were maintained on a 12:12-h light/dark cycle. Rats were group housed in an Association for Assessment and Accreditation of Laboratory Animal Care (AAALAC) accredited facility and cared for in strict compliance with all applicable regulations.
Rats were anesthetized with 1.2 g/kg i.p. urethane (#U-2500, Sigma Chemical Company, St. Louis, Mo.) and given supplemental urethane as needed. […]
Stimulated field responses were recorded in the trigeminal nucleus caudalis using Teflon coated stainless-steel microelectrodes (5 megaohms impedance, Frederick Haer, Brunswick, Me.) and amplified and filtered (0.1 Hz-10 kHz) using a differential amplifier (#IsoDAM8, World Precision Instruments, Sarasota, Fla.). […]
Three baseline measures (i.e., 100% of control), each consisting of 100 evoked trigeminal field potentials, were sampled prior to drug injection. […] Following injection of test substances, data were sampled for 1 hour, averaged into 5 minute bins (90 evoked potentials) and expressed as a percent change from average baseline values for the purposes of statistical analysis. Data were analyzed using repeated measures analyses of variance comparing vehicle and drug effects. […]

Structure (SMILES) | KCNQ2 Current ([1]; at 20 μM) | further results
O=C(NCc1ccc(F)cc1)c1cnc(N2CCOCC2)nc1C1CCCCC1 [Example 1, 4-Cyclohexyl-2-(morpholin-1-yl)-N-[(4-fluorophenyl)methyl]pyrimidine-5-carboxamide] | +++ (+++ = >200%) | –
O=C(NCc1ccc(F)cc1)c1cnc(N2CCCC2)nc1C1CCCCC1 [Example 4, 4-Cyclohexyl-2-(pyrrolidin-1-yl)-N-[(4-fluorophenyl)methyl]pyrimidine-5-carboxamide] | +++ (+++ = >200%) | –
CCCc1nc(N2CCCC2)ncc1C(=O)NCc1ccc(F)cc1 [Example 9, 4-(1-Propyl)-2-(pyrrolidin-1-yl)-N-[(4-fluorophenyl)methyl]pyrimidine-5-carboxamide] | +++ (+++ = >200%) | –
O=C(NCc1ccc(C(F)(F)F)cc1)c1cnc(N2CCCC2)nc1C(F)(F)F [Example 19] | – | KCNQ2 Current ([1]; at 5 μM): ++** (++ = 151-200%); decrease in field potential compared with vehicle ([2]; 1 mg/kg i.v., 60 minutes following i.v. injection, rat SSS model of migraine, p=0.005): 25.2%; reduction in the SSS-stimulated trigeminal field response ([2]; i.v., rat, overall ANOVA p<0.001): dose-dependent reduction
O=C(NCc1ccc(C(F)(F)F)cc1)c1cnc(NCc2ccccc2)nc1N1CCCC1 [Example 37, 2-(Phenylmethylamino)-4-(pyrrolidin-1-yl)-N-[[4-(trifluoromethyl)phenyl]methyl]pyrimidine-5-carboxamide] | ++ (++ = 151-200%) | –
O=C(NCc1ccc(C(F)(F)F)cc1)c1cnc(NCc2ccc(Cl)cc2)nc1N1CCCC1 [Example 39, 2-[(4-Chlorophenyl)methylamino]-4-(pyrrolidin-1-yl)-N-[[4-(trifluoromethyl)phenyl]methyl]-pyrimidine-5-carboxamide] | + (+ = 125-150%) | –
